# Assay results from paper PMC8268887, “Peptide/β-Peptoid Hybrids with Ultrashort PEG-Like Moieties: Effects on Hydrophobicity, Antibacterial Activity and Hemolytic Properties” (International Journal of Molecular Sciences, 2021).
# Read-outs that look alike come from different tables or passages of the source.
# Legend:
# [1] = test system: P. aeruginosa NMI 7197/19; assay type: cell-based, Pseudomonas aeruginosa; details: NMI 7197/19, 20 h
# Method in brief: (§1)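 Broth microdilution (modified Hancock method) used ~5 × 10^5 CFU/mL inocula in Mueller-Hinton broth with Mg^2+ and Ca^2+ at 4 mg/L each. Peptidomimetics were diluted in 0.01% acetic acid, 0.2% BSA (final) using low-binding materials. MICs were read after 20 h at 35 °C (±2 °C) with 180 rpm shaking.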
# P. aeruginosa PAO1 = assay type: cell-based, Pseudomonas aeruginosa; details: PAO1, 20 h
# Method in brief: as §1
# K. pneumoniae ATCC 13883 = assay type: cell-based
# Method in brief: as §1
# E. faecalis ATCC 29212 = assay type: cell-based; details: ATCC 29212, 20 h
# Method in brief: as §1
# E. coli ATCC 25922 = assay type: cell-based, Escherichia coli; details: ATCC 25922, 20 h
# Method in brief: as §1
# E. coli NMI 3898/15 = assay type: cell-based, Escherichia coli; details: NMI 3898/15, 20 h
# Method in brief: as §1
# E. coli NMI 3371/16 = assay type: cell-based, Escherichia coli; details: NMI 3371/16, 20 h
# Method in brief: as §1
# [2] = Estimation of log D values (n-octanol/PBS pH 7.4, LC-MS, log Dmax from LOQ); assay type: physicochemical; details: n-octanol/PBS pH 7.4, 25 °C; indicative threshold from LOQ in octanol phase
# Experimental: A phosphate buffered saline (PBS) pH 7.4 was prepared and then saturated with n-octanol. Likewise, an n-octanol solution saturated with pH 7.4 PBS buffer was also prepared. Both solutions were shaken for 24 h, and then left for 24 h in a separating funnel to ensure complete separation of the two phases. This provided an aqueous phase (PBS buffer saturated with n-octanol) and an n-octanol phase (saturated with PBS buffer).
# Samples for log D determination were prepared as following: All compounds were dissolved in PBS buffer at a concentration 4 mg/mL, which was used as stock solutions. PBS-saturated n-octanol (1.0 mL), n-octanol-saturated PBS (0.76 mL) and sample stock solution (0.24 mL) were placed into a 4-mL clear glass vial and incubated on Biosan Thermo Shaker TS-100 at 1000 rpm and 25 °C. For optimization of the assay, the incubation time was varied from 5 h to 48 h. […] After incubation samples were centrifugated and left for 30 min to ensure complete separation of the phases. The distribution coefficient was determined by quantification of the compounds both in the aqueous and n-octanol phases. Then, 100 µL of each phase were transferred to 1.5 mL champagne glass vial and evaporated using a GeneVac EZ-2 PLUS evaporation instrument. Before LC-MS analysis samples were diluted with 200 µL MeCN–0.1% aqueous formic acid (1:1, v/v).
# LC-MS was performed on Acquity UPLC chromatograph coupled with a MICROMASS QUATTRO micro^TM API tandem mass spectrometer. The mass spectrometer was operated in positive electrospray ionisation mode. Parameter settings were as follows: desolvation gas (N2) flow was 600 L/h; desolvation gas temperature was 400 °C; capillary voltage, 3.30 kV; ion source temperature was 120 °C. Initial data acquisition was carried out in full-scan mode to select the most abundant ions of the individual compounds.
# Waters Acquity UPLC column BEH C18 (2.1 × 50 mm, 1.7 µm particle size) was applied for analysis. Acetonitrile and 0.1% aqueous formic acid mixtures were used as mobile phase at a flow rate of 0.4 mL/min with the following gradient: 0.0–2.5 min 5–98% MeCN, 2.5–3.5 min 98% MeCN. Injection volume was 2 µL.
# Limit of quantitation (LOQ) was determined using S/N ratio for each compound and used for log Dmax calculations according to the following equation:(2) log Dmax = log (theoretical peak area of n-octanol phase at LOQ concentration/peak area of buffer base) Theoretical peak area at LOQ was calculated according to the calibration curve for each compound.
# S. aureus ATCC 29213 = assay type: cell-based, Staphylococcus aureus; details: ATCC 29213, 20 h
# Method in brief: as §1
# [3] = Hydrophobicity by retention in analytical RP-HPLC (% MeCN at peak elution); assay type: physicochemical; details: for % MeCN at Elution, Aeris Peptide: Phenomenex Aeris Peptide XB-C18 column; for % MeCN at Elution, Aeris Peptide / % MeCN at Elution, Luna Omega / % MeCN at Elution, Supelco Discovery: gradient 0→60% B during 15 min; for % MeCN at Elution, Luna: Phenomenex Luna C18(2) column, RP-HPLC gradient 0→60% B during 15 min, relative hydrophobicity; for % MeCN at Elution, Luna Omega: Phenomenex Luna Omega Polar C18 column; for % MeCN at Elution, Supelco Discovery: Supelco Discovery BIO Wide pore C18 column
# Method in brief: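 Retention times measured on four C18 columns (Luna C18(2), Luna Omega Polar C18, Aeris Peptide XB-C18, Discovery BIO Wide pore) with MeCN–H2O/0.1% TFA, linear 0–60% B over 15 min, 0.8 mL/min, UV 220 nm. % MeCN at elution = 0.95(0.6Rt/15 min)+0.05(1−0.6Rt/15 min).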
compound,measurement,setting,value
"NCCCC[C@H](NC(=O)CCN(Cc1ccc(F)cc1)C(=O)[C@H](CCCCN)NC(=O)COCCNC(=O)CCN(Cc1ccc(F)cc1)C(=O)[C@H](CCCCN)NC(=O)CCN(Cc1ccc(F)cc1)C(=O)[C@H](CCCCN)NC(=O)COCCNC(=O)CCN(Cc1ccc(F)cc1)C(=O)[C@H](CCCCN)NC(=O)CCN(Cc1ccc(F)cc1)C(=O)[C@@H](N)CCCCN)C(=O)N(CCC(N)=O)Cc1ccc(F)cc1 [Compound 15, H-[X]2-sPEG1-[X]2-sPEG1-[X]2-NH2]","MIC, P. aeruginosa NMI 7197/19",[1],>64 µg/mL
same,"MIC, PA",P. aeruginosa PAO1,32 to 64 µg/mL
same,"MIC, KP",K. pneumoniae ATCC 13883,64–>64
same,"MIC, EF",E. faecalis ATCC 29212,>64 µg/mL
same,"MIC, EC",E. coli ATCC 25922,4 µg/mL
same,"MIC, E. coli NMI 3898/15",E. coli NMI 3898/15,8 µg/mL
same,"MIC, E. coli NMI 3371/16",E. coli NMI 3371/16,4 µg/mL
same,log Dmax,[2],< −3.180
same,"MIC, SA",S. aureus ATCC 29213,>64 µg/mL
same,"% MeCN at Elution, Aeris Peptide",[3],39.0 % MeCN
same,"% MeCN at Elution, Luna",[3],41.1 % MeCN
same,"% MeCN at Elution, Luna Omega",[3],41.4 % MeCN
same,"% MeCN at Elution, Supelco Discovery",[3],41.2 % MeCN
"NCCCC[C@H](NC(=O)CCN(Cc1ccc(F)cc1)C(=O)[C@H](CCCCN)NC(=O)COCCOCCNC(=O)CCN(Cc1ccc(F)cc1)C(=O)[C@H](CCCCN)NC(=O)CCN(Cc1ccc(F)cc1)C(=O)[C@H](CCCCN)NC(=O)COCCOCCNC(=O)CCN(Cc1ccc(F)cc1)C(=O)[C@H](CCCCN)NC(=O)CCN(Cc1ccc(F)cc1)C(=O)[C@@H](N)CCCCN)C(=O)N(CCC(N)=O)Cc1ccc(F)cc1 [Compound 16, H-[X]2-sPEG2-[X]2-sPEG2-[X]2-NH2]","MIC, P. aeruginosa NMI 7197/19",[1],>64 µg/mL
same,"MIC, PA",P. aeruginosa PAO1,32 to 64 µg/mL
same,"MIC, KP","K. pneumoniae ATCC 13883; ATCC 13883, 20 h",64 µg/mL
same,"MIC, EF",E. faecalis ATCC 29212,>64 µg/mL
same,MIC against E. coli,E. coli ATCC 25922,0.7 to 1.4 µM
same,"MIC, EC",E. coli ATCC 25922,2 to 4 µg/mL
same,"MIC, E. coli NMI 3898/15",E. coli NMI 3898/15,8 µg/mL
same,"MIC, E. coli NMI 3371/16",E. coli NMI 3371/16,4 µg/mL
same,log Dmax,[2],< −3.922
same,"MIC, SA",S. aureus ATCC 29213,32 to 64 µg/mL
same,"% MeCN at Elution, Aeris Peptide",[3],39.4 % MeCN
same,"% MeCN at Elution, Luna",[3],41.5 % MeCN
same,"% MeCN at Elution, Luna Omega",[3],41.9 % MeCN
same,"% MeCN at Elution, Supelco Discovery",[3],41.6 % MeCN
"NCCCC[C@H](NC(=O)CCN(Cc1ccc(F)cc1)C(=O)[C@H](CCCCN)NC(=O)CCN(Cc1ccc(F)cc1)C(=O)[C@H](CCCCN)NC(=O)CCOCCOCCOCCOCCNC(=O)CCN(Cc1ccc(F)cc1)C(=O)[C@H](CCCCN)NC(=O)CCN(Cc1ccc(F)cc1)C(=O)[C@H](CCCCN)NC(=O)CCN(Cc1ccc(F)cc1)C(=O)[C@@H](N)CCCCN)C(=O)N(CCC(N)=O)Cc1ccc(F)cc1 [Compound 9, H-[X]3-sPEG4-[X]3-NH2]","MIC, P. aeruginosa NMI 7197/19",[1],>64 µg/mL
same,"MIC, PA",P. aeruginosa PAO1,32 µg/mL
same,"MIC, KP","K. pneumoniae ATCC 13883; ATCC 13883, 20 h",>64 µg/mL
same,"MIC, EF",E. faecalis ATCC 29212,>64 µg/mL
same,"MIC, EC",E. coli ATCC 25922,4 µg/mL
same,"MIC, E. coli NMI 3898/15",E. coli NMI 3898/15,16 µg/mL
same,"MIC, E. coli NMI 3371/16",E. coli NMI 3371/16,4 to 8 µg/mL
same,log Dmax,[2],< −3.627
same,"MIC, SA",S. aureus ATCC 29213,>64 µg/mL
same,"% MeCN at Elution, Aeris Peptide",[3],39.8 % MeCN
same,"% MeCN at Elution, Luna",[3],41.8 % MeCN
same,"% MeCN at Elution, Luna Omega",[3],42.3 % MeCN
same,"% MeCN at Elution, Supelco Discovery",[3],42.0 % MeCN
"NCCCC[C@H](NC(=O)CCN(Cc1ccc(F)cc1)C(=O)[C@H](CCCCN)NC(=O)CCN(Cc1ccc(F)cc1)C(=O)[C@H](CCCCN)NC(=O)COCCN)C(=O)N(CCC(=O)NCCOCC(=O)N[C@@H](CCCCN)C(=O)N(CCC(=O)N[C@@H](CCCCN)C(=O)N(CCC(=O)N[C@@H](CCCCN)C(=O)N(CCC(=O)NCCOCC(N)=O)Cc1ccc(F)cc1)Cc1ccc(F)cc1)Cc1ccc(F)cc1)Cc1ccc(F)cc1 [Compound 11, H-sPEG1-[X]3-sPEG1-[X]3-sPEG1-NH2]","MIC, P. aeruginosa NMI 7197/19",[1],>64 µg/mL
same,"MIC, PA",P. aeruginosa PAO1,32 µg/mL
same,"MIC, KP","K. pneumoniae ATCC 13883; ATCC 13883, 20 h",>64 µg/mL
same,"MIC, EF",E. faecalis ATCC 29212,>64 µg/mL
same,"MIC, EC",E. coli ATCC 25922,8 µg/mL
same,"MIC, E. coli NMI 3898/15",E. coli NMI 3898/15,16 µg/mL
same,"MIC, E. coli NMI 3371/16",E. coli NMI 3371/16,8 µg/mL
same,log Dmax,[2],< −2.876
same,"MIC, SA",S. aureus ATCC 29213,>64 µg/mL
same,"% MeCN at Elution, Aeris Peptide",[3],38.7 % MeCN
same,"% MeCN at Elution, Luna",[3],40.8 % MeCN
same,"% MeCN at Elution, Luna Omega",[3],41.4 % MeCN
same,"% MeCN at Elution, Supelco Discovery",[3],40.8 % MeCN
"NCCCC[C@H](NC(=O)CCN(Cc1ccc(F)cc1)C(=O)[C@H](CCCCN)NC(=O)CCN(Cc1ccc(F)cc1)C(=O)[C@H](CCCCN)NC(=O)CCOCCOCCOCCOCCN)C(=O)N(CCC(=O)NCCOCCOCCOCCOCCC(=O)N[C@@H](CCCCN)C(=O)N(CCC(=O)N[C@@H](CCCCN)C(=O)N(CCC(=O)N[C@@H](CCCCN)C(=O)N(CCC(=O)NCCOCCOCCOCCOCCC(N)=O)Cc1ccc(F)cc1)Cc1ccc(F)cc1)Cc1ccc(F)cc1)Cc1ccc(F)cc1 [Compound 14, H-sPEG4-[X]3-sPEG4-[X]3-sPEG4-NH2]","MIC, P. aeruginosa NMI 7197/19",[1],>64 µg/mL
same,"MIC, PA",P. aeruginosa PAO1,>64 µg/mL
same,"MIC, KP","K. pneumoniae ATCC 13883; ATCC 13883, 20 h",>64 µg/mL
same,"MIC, EF",E. faecalis ATCC 29212,>64 µg/mL
same,"MIC, EC",E. coli ATCC 25922,16 µg/mL
same,"MIC, E. coli NMI 3898/15",E. coli NMI 3898/15,32 µg/mL
same,"MIC, E. coli NMI 3371/16",E. coli NMI 3371/16,16 µg/mL
same,log Dmax,[2],< −2.883
same,"MIC, SA",S. aureus ATCC 29213,>64 µg/mL
same,"% MeCN at Elution, Aeris Peptide",[3],40.4 % MeCN
same,"% MeCN at Elution, Luna",[3],42.4 % MeCN
same,"% MeCN at Elution, Luna Omega",[3],43.5 % MeCN
same,"% MeCN at Elution, Supelco Discovery",[3],42.5 % MeCN
"NCCCC[C@H](NC(=O)CCN(Cc1ccc(F)cc1)C(=O)[C@H](CCCCN)NC(=O)CCN(Cc1ccc(F)cc1)C(=O)[C@H](CCCCN)NC(=O)COCCOCCNC(=O)CCN(Cc1ccc(F)cc1)C(=O)[C@H](CCCCN)NC(=O)CCN(Cc1ccc(F)cc1)C(=O)[C@H](CCCCN)NC(=O)CCN(Cc1ccc(F)cc1)C(=O)[C@@H](N)CCCCN)C(=O)N(CCC(N)=O)Cc1ccc(F)cc1 [Compound 7, H-[X]3-sPEG2-[X]3-NH2]","MIC, P. aeruginosa NMI 7197/19",[1],>64 µg/mL
same,"MIC, PA",P. aeruginosa PAO1,16 to 32 µg/mL
same,"MIC, KP","K. pneumoniae ATCC 13883; ATCC 13883, 20 h",>64 µg/mL
same,"MIC, EC",E. coli ATCC 25922,4 µg/mL
same,"MIC, E. coli NMI 3898/15",E. coli NMI 3898/15,8 µg/mL
same,"MIC, E. coli NMI 3371/16",E. coli NMI 3371/16,4 µg/mL
same,log Dmax,[2],< −3.650
same,"% MeCN at Elution, Aeris Peptide",[3],39.4 % MeCN
same,"% MeCN at Elution, Luna",[3],41.4 % MeCN
same,"% MeCN at Elution, Luna Omega",[3],41.8 % MeCN
same,"% MeCN at Elution, Supelco Discovery",[3],41.6 % MeCN
